ChEMBL document CHEMBL1201862, “PubChem BioAssay data set” (2004)
Activity calls are given as the source filed them.

Legend:
Phospholipase A2 = Phospholipase A2 (Homo sapiens, UniProt P04054); type: functional;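 also: confirmatory dose-response counterscreen on phospholipase A2, testing hits that came from an ultra-high-throughput screen for ATG4B inhibitors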
HEK293 [1] = assay: cells; type: functional, cell-based; settings: Homo sapiens
HEK293 [2] = assay: cells; type: functional, cell-based; settings: Homo sapiens; remark: listed apart in the source
[3] = target: Nucleotide-binding oligomerization domain-containing protein 2 (Homo sapiens, UniProt Q9HC29); assay: inhibition of NOD2-driven NF-kB reporter – cell-based, luminescence, uHTS, HEK293 (AID 1566); type: functional
HEK293 [4] = assay: NOD2 signaling inhibitors in MDP-stimulated cells, cell-based, uHTS, luminescence (AID 2001); type: functional; settings: Homo sapiens
HEK293 [5] = assay: cells; type: functional, cell-based; settings: Homo sapiens; remark: listed apart in the source
HEK293 [6] = assay: inhibition of NOD1-driven NF-kB reporter – cell-based, luminescence, uHTS, primary screen (AID 1578); type: functional; settings: Homo sapiens
Cysteine protease ATG4B = target: T1, Cysteine protease ATG4B (Homo sapiens, UniProt Q9Y4P1); type: functional;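 also: Fluorescence-based dose-response confirmation assay measuring inhibition of ATG4B activity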
T1 sequence (Q9Y4P1 whole entry): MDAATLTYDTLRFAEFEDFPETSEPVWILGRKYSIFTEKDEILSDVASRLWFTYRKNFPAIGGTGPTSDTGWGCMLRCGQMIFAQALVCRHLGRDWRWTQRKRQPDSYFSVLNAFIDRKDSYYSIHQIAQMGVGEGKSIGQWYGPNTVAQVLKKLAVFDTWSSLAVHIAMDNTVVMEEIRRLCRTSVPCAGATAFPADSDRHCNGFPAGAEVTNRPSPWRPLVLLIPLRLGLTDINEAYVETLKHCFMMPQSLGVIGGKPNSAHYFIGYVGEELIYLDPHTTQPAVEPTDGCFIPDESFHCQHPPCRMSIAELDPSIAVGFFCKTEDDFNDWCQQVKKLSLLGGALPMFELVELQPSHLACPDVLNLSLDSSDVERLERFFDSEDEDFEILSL

[7] = THP-1 cell cytotoxicity, dose response, cytotoxicity control for non-replicating M. tuberculosis project (AID 489025); type: functional
INS1 = assay: INS-1E survival protection against cytokine death – cell-based, luminescence, retest, dose response (AID 449756); type: functional; settings: Rattus norvegicus;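 also: cell death triggered by IL-1 beta plus TNF-alpha plus IFN-gamma mixture; protective hits raise ATP signal compared with cytokine alone wells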
[8] = Vero E6 cell cytotoxicity, dose response, cytotoxicity control for non-replicating M. tuberculosis project, secondary assay (AID 492998); type: functional, VeroE6; settings: Vero C1008
cells [9] = type: functional, cell-based
cells [10] = type: functional, cell-based; remark: listed apart in the source
[11] = Luminescence Cell-Based Dose Confirmation HTS to Identify Inhibitors of Platelet Dense Granule Release. [Related pubchem assays: 1663 (Primary HTS), 1678 (Summary of Project)]; type: functional
[12] = target: Luciferin 4-monooxygenase (Photinus pyralis, UniProt P08659); assay: inhibition of purified Photinus pyralis luciferase – biochemical, luminescence, dose response (AID 1891)
[13] = HepG2 cell cytotoxicity, dose response, cytotoxicity control for non-replicating M. tuberculosis project (AID 489018); type: functional; settings: Mycobacterium tuberculosis
[14] = target: T2, Microphthalmia-associated transcription factor (Homo sapiens, UniProt O75030); assay: reducers of TRPM1 reporter luminescence, concentration series – cell-based, SK-MEL-5, cherry-picked, set 3, MITF inhibitor project, dose response (AID 493073); type: functional;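 also: SK-MEL-5 melanoma cells with luciferase driven by the MITF target TRPM1 promoter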
T2 sequence (O75030 whole entry): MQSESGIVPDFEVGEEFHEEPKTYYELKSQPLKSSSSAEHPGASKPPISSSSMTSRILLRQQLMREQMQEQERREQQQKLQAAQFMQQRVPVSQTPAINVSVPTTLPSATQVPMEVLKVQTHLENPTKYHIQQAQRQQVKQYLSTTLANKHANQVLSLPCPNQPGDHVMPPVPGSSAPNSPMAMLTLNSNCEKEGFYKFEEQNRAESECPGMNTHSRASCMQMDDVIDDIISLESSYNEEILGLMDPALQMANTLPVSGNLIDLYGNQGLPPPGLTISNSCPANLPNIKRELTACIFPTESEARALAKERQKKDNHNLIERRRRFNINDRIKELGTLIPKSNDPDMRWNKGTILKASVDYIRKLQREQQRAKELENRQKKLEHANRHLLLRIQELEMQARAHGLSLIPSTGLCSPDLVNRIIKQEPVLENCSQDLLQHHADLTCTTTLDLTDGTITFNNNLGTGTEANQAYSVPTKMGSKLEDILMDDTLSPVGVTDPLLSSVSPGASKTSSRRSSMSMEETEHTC

cells [15] = type: functional

Chain of Nucleotide-binding oligomerization domain-containing protein 2 (Q9HC29 whole entry, the tested form may be a part): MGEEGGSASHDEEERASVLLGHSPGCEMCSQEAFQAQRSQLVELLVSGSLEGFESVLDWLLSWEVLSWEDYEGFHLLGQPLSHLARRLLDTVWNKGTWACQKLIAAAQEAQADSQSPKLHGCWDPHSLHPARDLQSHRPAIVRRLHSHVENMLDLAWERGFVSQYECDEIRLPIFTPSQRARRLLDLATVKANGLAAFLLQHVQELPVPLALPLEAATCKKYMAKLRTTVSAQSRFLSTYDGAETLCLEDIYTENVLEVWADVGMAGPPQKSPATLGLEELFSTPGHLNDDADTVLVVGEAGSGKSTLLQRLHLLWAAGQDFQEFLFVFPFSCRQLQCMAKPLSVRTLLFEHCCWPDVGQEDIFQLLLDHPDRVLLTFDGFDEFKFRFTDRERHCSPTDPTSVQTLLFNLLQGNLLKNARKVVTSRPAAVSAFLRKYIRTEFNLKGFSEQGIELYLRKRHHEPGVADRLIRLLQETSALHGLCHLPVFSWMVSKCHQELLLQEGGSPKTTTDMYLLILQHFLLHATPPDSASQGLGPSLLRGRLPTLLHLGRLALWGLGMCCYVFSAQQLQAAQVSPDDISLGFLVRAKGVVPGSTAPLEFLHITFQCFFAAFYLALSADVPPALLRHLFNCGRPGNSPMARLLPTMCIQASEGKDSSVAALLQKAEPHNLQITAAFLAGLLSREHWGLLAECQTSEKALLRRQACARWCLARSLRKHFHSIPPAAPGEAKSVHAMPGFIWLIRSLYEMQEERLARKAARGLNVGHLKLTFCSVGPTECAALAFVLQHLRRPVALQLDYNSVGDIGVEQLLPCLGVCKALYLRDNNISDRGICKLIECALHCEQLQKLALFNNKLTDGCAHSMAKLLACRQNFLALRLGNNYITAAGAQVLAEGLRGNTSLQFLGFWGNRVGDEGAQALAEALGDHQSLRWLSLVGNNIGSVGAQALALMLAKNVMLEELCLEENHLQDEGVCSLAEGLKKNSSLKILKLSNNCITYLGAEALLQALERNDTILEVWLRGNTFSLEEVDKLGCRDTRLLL
Chain of Phospholipase A2 (P04054 whole entry): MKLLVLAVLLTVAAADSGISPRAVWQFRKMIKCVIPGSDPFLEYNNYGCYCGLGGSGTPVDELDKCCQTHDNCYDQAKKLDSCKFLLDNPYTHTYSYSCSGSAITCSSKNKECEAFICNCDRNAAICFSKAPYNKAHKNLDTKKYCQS
Chain of Luciferin 4-monooxygenase (P08659 whole entry): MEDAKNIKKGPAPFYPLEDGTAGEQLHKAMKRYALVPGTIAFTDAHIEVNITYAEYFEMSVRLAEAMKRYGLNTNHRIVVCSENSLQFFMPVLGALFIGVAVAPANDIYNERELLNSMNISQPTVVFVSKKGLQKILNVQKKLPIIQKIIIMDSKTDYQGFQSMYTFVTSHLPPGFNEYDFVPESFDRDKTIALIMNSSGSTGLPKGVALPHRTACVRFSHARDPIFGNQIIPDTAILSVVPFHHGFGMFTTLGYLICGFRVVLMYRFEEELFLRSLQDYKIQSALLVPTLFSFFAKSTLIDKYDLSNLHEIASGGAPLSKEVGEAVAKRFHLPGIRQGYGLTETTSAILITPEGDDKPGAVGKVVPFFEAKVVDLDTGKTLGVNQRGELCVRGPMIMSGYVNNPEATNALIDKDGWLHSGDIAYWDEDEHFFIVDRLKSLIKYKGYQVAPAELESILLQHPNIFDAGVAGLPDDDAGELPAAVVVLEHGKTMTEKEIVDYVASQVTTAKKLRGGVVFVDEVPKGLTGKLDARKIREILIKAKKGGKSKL

SMILES | IC50 (Phospholipase A2) | IC50 (HEK293 [1]) | IC50 (HEK293 [2]) | EC50 [3] | IC50 (HEK293 [4]) | IC50 (HEK293 [5]) | EC50 (HEK293 [6]) | IC50 (Cysteine protease ATG4B) | CC50 [7] | AC50 (INS1) | CC50 [8] | EC50 (cells [9]) | EC50 (cells [10]) | EC50 [11] | EC50 [12] | CC50 [13] | AC50 [14] | IC50 (cells [15])
COc1ccc2nc(N3CCCCC3)c(/C=C3\SC(=S)NC3=O)cc2c1 | 2.47 µM (active) | > 20 µM (inactive) | 19.5 µM (active) | 16.2 µM (active) | 4.26 µM (inactive) | 4.9 µM (active) | 2.17 µM (active) | 4.24 µM (active) |  |  |  |  |  |  |  |  |  | 
COc1cccc(/C=N/NC(=O)c2ccoc2C)c1O |  |  |  |  |  |  |  |  | 4.17 µM (active) | 3.85 µM (active) | 9.35 µM (active) | 82.2 µM (active) | 7.29 µM (active) | 2.09 µM (active) | 4.56 µM (active) | 6.69 µM (active) |  | 
Cc1ccc(NC(=O)c2ccc([N+](=O)[O-])o2)cc1S(=O)(=O)N1CCOCC1 |  |  |  |  |  |  |  |  | 6.1 µM (active) |  | 6.5 µM (active) |  |  |  |  | 9.48 µM (active) | 11.4 µM (active) | 18.4 µM (active)
